How the values were obtained:
[1] = tested on: Rattus norvegicus; assay: Ratio of sodium ion/potassium ion concentration in treated rats to that in control rats, at a peroral dose of 1.6 mg/Kg; assay type: functional
[2] = tested on: Rattus norvegicus; assay: Serum creatinine concentration measured after intraperitoneal administration of 1 mg/kg of compound to rats(vehicle 4.91+/-0.10); assay type: functional
[3] = tested on: Rattus norvegicus; assay: Ratio of urinary excretion value (urinary volume) in treated rats to that in control rats, at a peroral dose of 3.1 mg/Kg; assay type: functional, Urine
[4] = tested on: Rattus norvegicus; assay: Ratio of urinary excretion value (Na+ concentration) in treated rats to that in control rats, at a peroral dose of 25 mg/Kg; assay type: functional, Urine
[5] = tested on: Rattus norvegicus; assay: Oral diuretic activity was measured after oral administration of 25 mg/kg to rats(control volume is 0.69+/-0.03); assay type: functional, Urine
[6] = tested on: Rattus norvegicus; assay: Effect on urinary excretion potassium and sodium after oral administration of 1.6 mg/kg to rats(potassium and sodium excretion in control rat is 0.158+/-0.034); assay type: functional, Urine
[7] = tested on: Rattus norvegicus; assay: Percent inhibition of serum creatinine by the compound given as ratio of Cr value in treated to vehicle treated ones after intraperitoneal administration of 1 mg/kg of compound to rats(vehicle 4.91+/-0.10); assay type: functional; conditions: ip
[8] = tested on: Rattus norvegicus; assay: Ratio of urinary excretion value (Na+ concentration) in treated rats to that in control rats, at a peroral dose of 1.6 mg/Kg; assay type: functional, Urine
[9] = tested on: Rattus norvegicus; assay: Urea nitrogen concentration measured after intraperitoneal administration of 10 mg/kg of compound to rats(vehicle 146.7+/-10.1); assay type: functional
[10] = tested on: Rattus norvegicus; assay: Percent inhibition of Urea nitrogen by the compound given as ratio of UN value in treated to vehicle treated ones after intraperitoneal administration of 1 mg/kg of compound to rats(vehicle 154.5+/-7); assay type: functional; conditions: ip
[11] = tested on: Rattus norvegicus; assay: Serum creatinine concentration measured after intraperitoneal administration of 10 mg/kg of compound to rats(vehicle 4.26+/-0.39); assay type: functional
[12] = tested on: Rattus norvegicus; assay: Effect on urinary excretion potassium and sodium after oral administration of 25 mg/kg to rats(potassium and sodium excretion in control rat is 0.079+/-0.007); assay type: functional, Urine
[13] = tested on: Rattus norvegicus; assay: Urea nitrogen concentration measured after intraperitoneal administration of 1 mg/kg of compound to rats(vehicle 154.5+/-7); assay type: functional
[14] = tested on: Rattus norvegicus; assay: Ratio of urinary excretion value (urinary volume) in treated rats to that in control rats, at a peroral dose of 1.6 mg/Kg; assay type: functional, Urine
[15] = tested on: Rattus norvegicus; assay: Ratio of sodium ion/potassium ion concentration in treated rats to that in control rats, at a peroral dose of 3.1 mg/Kg; assay type: functional
[16] = tested on: Rattus norvegicus; assay: Ratio of urinary excretion value (urinary volume) in treated rats to that in control rats, at a peroral dose of 25 mg/Kg; assay type: functional, Urine
[17] = tested on: Rattus norvegicus; assay: Percent inhibition of Urea nitrogen by the compound given as ratio of UN value in treated to vehicle treated ones after intraperitoneal administration of 10 mg/kg of compound to rats(vehicle 146.7+/-10.1); assay type: functional; conditions: ip
[18] = tested on: Rattus norvegicus; assay: Percent inhibition of serum creatinine by the compound given as ratio of Cr value in treated to vehicle treated ones after intraperitoneal administration of 10 mg/kg of compound to rats(vehicle 4.26+/-0.39); assay type: functional; conditions: ip
[19] = tested on: Rattus norvegicus; assay: Ratio of urinary excretion value (Na+ concentration) in treated rats to that in control rats, at a peroral dose of 3.1 mg/Kg; assay type: functional, Urine
[20] = target: T1, Adenosine receptor A1 (Cavia porcellus, UniProt P47745)
T1 sequence (P47745 whole entry): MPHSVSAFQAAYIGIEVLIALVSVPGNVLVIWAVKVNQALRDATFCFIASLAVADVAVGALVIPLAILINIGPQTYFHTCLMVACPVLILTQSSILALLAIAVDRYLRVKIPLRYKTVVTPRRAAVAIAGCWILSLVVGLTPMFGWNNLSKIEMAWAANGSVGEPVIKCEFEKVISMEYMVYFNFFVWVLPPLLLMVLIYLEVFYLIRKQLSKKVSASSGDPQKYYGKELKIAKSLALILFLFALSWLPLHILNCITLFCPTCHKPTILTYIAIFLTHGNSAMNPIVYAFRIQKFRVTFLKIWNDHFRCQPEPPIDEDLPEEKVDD
Description: Binding affinity against adenosine A1 receptor in guinea pig forebrain membranes using N6-[3H]cyclohexyladenosine as radioligand

[21] = tested on: Rattus norvegicus; assay: Effect on urinary excretion potassium and sodium after oral administration of 3.1 mg/kg to rats(potassium and sodium excretion in control rat is 0.227+/-0.027); assay type: functional, Urine
[22] = tested on: Rattus norvegicus; assay: Oral diuretic activity was measured after oral administration of 3.1 mg/kg to rats(control volume is 1.18+/-0.11); assay type: functional, Urine
[23] = tested on: Rattus norvegicus; assay: Oral diuretic activity was measured after oral administration of 1.6 mg/kg to rats(control volume is 1.12+/-0.33); assay type: functional, Urine
[24] = tested on: Rattus norvegicus; assay: Percent inhibition of serum creatinine by the compound given as ratio of Cr value in treated to vehicle treated ones after intraperitoneal administration of 0.1 mg/kg of compound to rats(vehicle 4.82+/-0.17); assay type: functional; conditions: ip
[25] = tested on: Rattus norvegicus; assay: Oral diuretic activity was measured after oral administration of 1.6 mg/kg to rats(control volume is 0.97+/-0.05); assay type: functional, Urine
[26] = tested on: Rattus norvegicus; assay: Percent inhibition of serum creatinine by the compound given as ratio of Cr value in treated to vehicle treated ones after intraperitoneal administration of 0.01 mg/kg of compound to rats(vehicle 3.92+/-0.23); assay type: functional; conditions: ip
[27] = tested on: Rattus norvegicus; assay: Ratio of sodium ion/potassium ion concentration in treated rats to that in control rats, at a peroral dose of 0.4 mg/Kg; assay type: functional
[28] = tested on: Rattus norvegicus; assay: Ratio of urinary excretion value (Na+ concentration) in treated rats to that in control rats, at a peroral dose of 0.4 mg/Kg; assay type: functional, Urine
[29] = tested on: Rattus norvegicus; assay: Percent inhibition of Urea nitrogen by the compound given as ratio of UN value in treated to vehicle treated ones after intraperitoneal administration of 0.1 mg/kg of compound to rats(vehicle 151.5+/-7.4); assay type: functional; conditions: ip
[30] = tested on: Rattus norvegicus; assay: Urea nitrogen concentration measured after intraperitoneal administration of 1 mg/kg of compound to rats(vehicle 195.8+/-14.4); assay type: functional
[31] = tested on: Rattus norvegicus; assay: Oral diuretic activity was measured after oral administration of 0.1 mg/kg to rats(control volume is 1.05+/-0.11); assay type: functional, Urine
[32] = tested on: Rattus norvegicus; assay: Ratio of urinary excretion value (urinary volume) in treated rats to that in control rats, at a peroral dose of 0.4 mg/Kg; assay type: functional, Urine
[33] = tested on: Rattus norvegicus; assay: Ratio of urinary excretion value (urinary volume) in treated rats to that in control rats, at a peroral dose of 0.1 mg/Kg; assay type: functional, Urine
[34] = tested on: Rattus norvegicus; assay: Percent inhibition of Urea nitrogen by the compound given as ratio of UN value in treated to vehicle treated ones after intraperitoneal administration of 1 mg/kg of compound to rats(vehicle 195.8+/-14.4); assay type: functional; conditions: Rattus norvegicus, ip
[35] = tested on: Rattus norvegicus; assay: Ratio of urinary excretion value (Na+ concentration) in treated rats to that in control rats, at a peroral dose of 0.1 mg/Kg; assay type: functional, Urine
[36] = tested on: Rattus norvegicus; assay: Serum creatinine concentration measured after intraperitoneal administration of 0.01 mg/kg of compound to rats(vehicle 3.92+/-0.23); assay type: functional
[37] = species on record: Rattus norvegicus; assay: Ratio of sodium ion/potassium ion concentration in treated rats to that in control rats, at a peroral dose of 0.1; assay type: functional
[38] = tested on: Rattus norvegicus; assay: Oral diuretic activity was measured after oral administration of 0.4 mg/kg to rats(control volume is 0.96+/-0.09); assay type: functional, Urine
[39] = tested on: Rattus norvegicus; assay: Percent inhibition of Urea nitrogen by the compound given as ratio of UN value in treated to vehicle treated ones after intraperitoneal administration of 0.01 mg/kg of compound to rats(vehicle 141.3+/-8.3); assay type: functional; conditions: ip
[40] = tested on: Rattus norvegicus; assay: Urea nitrogen concentration measured after intraperitoneal administration of 0.1 mg/kg of compound to rats(vehicle 151.5+/-7.4); assay type: functional
[41] = tested on: Rattus norvegicus; assay: Urea nitrogen concentration measured after intraperitoneal administration of 0.01 mg/kg of compound to rats(vehicle 141.3+/-8.3); assay type: functional
[42] = tested on: Rattus norvegicus; assay: Effect on urinary excretion potassium and sodium after oral administration of 0.4 mg/kg to rats(potassium and sodium excretion in control rat is 0.147+/-0.015); assay type: functional, Urine
[43] = tested on: Rattus norvegicus; assay: Serum creatinine concentration measured after intraperitoneal administration of 1 mg/kg of compound to rats(vehicle 5.07+/-0.33); assay type: functional
[44] = species on record: Rattus norvegicus; assay: animal or person; conditions: ip, read-out: Inhibition, dose 1 mg/kg, route intraperitoneal
[45] = target: Adenosine A2 receptor (Rattus norvegicus, UniProt P29276+P30543)
[46] = tested on: Rattus norvegicus; assay: Serum creatinine concentration measured after intraperitoneal administration of 0.1 mg/kg of compound to rats(vehicle 4.82+/-0.17); assay type: functional
[47] = tested on: Rattus norvegicus; assay: Effect on urinary excretion potassium and sodium after oral administration of 1.6 mg/kg to rats(potassium and sodium excretion in control rat is 0.169+/-0.012); assay type: functional, Urine
[48] = tested on: Rattus norvegicus; assay: Effect on urinary excretion potassium and sodium after oral administration of 0.1 mg/kg to rats(potassium and sodium excretion in control rat is 0.180+/-0.017); assay type: functional, Urine

## CCCn1c(=O)c2nc(C34CC5CC(CC(C5)C3)C4)[nH]c2n(CCC)c1=O
[1]
  Na+/K+: 1.22
[2]
  Cr: 3.45 mg/dL
[3]
  T/C: 1.42
[4]
  T/C: 2.86
[5]
  Urine volume: 1.58 ml 6hr-1 100g-1
[6]
  Na: 0.227 m equiv 6hr-1 100g-1
[7]
  inhibition in vivo at 1 mg/kg: 30%
[8]
  T/C: 1.44
[9]
  UN: 77.5 mg/dL
[10]
  inhibition in vivo at 1 mg/kg: 25%
[11]
  Cr: 1.91 mg/dL
[12]
  Na: 0.226 m equiv 6hr-1 100g-1
[13]
  UN: 118.8 mg/dL
[14]
  T/C: 1.24
[15]
  Na+/K+: 1.23
[16]
  T/C: 2.29
[17]
  inhibition in vivo at 10 mg/kg: 47%
[18]
  inhibition in vivo at 10 mg/kg: 55%
[19]
  T/C: 1.32
[20]
  Ki: 13 nM
[21]
  Na: 0.299 m equiv 6hr-1 100g-1
[22]
  Urine volume: 1.67 ml 6hr-1 100g-1
[23]
  Urine volume: 1.39 ml 6hr-1 100g-1

## Cn1c(=O)c2nc(C34CC5CC(CC3C5)C4)[nH]c2n(C)c1=O
[1]
  Na+/K+: 1.67
[24]
  inhibition in vivo at 0.1 mg/kg: 35%
[25]
  Urine volume: 2.27 ml 6hr-1 100g-1
[26]
  inhibition in vivo at 0.01 mg/kg: 10%
[27]
  Na+/K+: 1.54
[8]
  T/C: 2.36
[28]
  T/C: 1.74
[29]
  inhibition in vivo at 0.1 mg/kg: 36%
[30]
  UN: 116.7 mg/dL
[31]
  Urine volume: 0.86 ml 6hr-1 100g-1
[32]
  T/C: 1.66
[33]
  T/C: 0.82
[34]
  inhibition in vivo at 1 mg/kg: 40%
[35]
  T/C: 0.91
[36]
  Cr: 3.53 mg/dL
[37]
  Na+/K+: 0.97
[38]
  Urine volume: 1.59 ml 6hr-1 100g-1
[39]
  inhibition in vivo at 0.01 mg/kg: 6%
[40]
  UN: 97.3 mg/dL
[41]
  UN: 133.4 mg/dL
[42]
  Na: 0.257 m equiv 6hr-1 100g-1
[14]
  T/C: 2.34
[43]
  Cr: 2.88 mg/dL
[44]
  inhibition in vivo at 1 mg/kg: 43%
[45]
  Ki: 1200 nM
[46]
  Cr: 3.14 mg/dL
[47]
  Na: 0.398 m equiv 6hr-1 100g-1
[48]
  Na: 0.163 m equiv 6hr-1 100g-1
